Counter-ions that a name gives are not always drawn. Like-named read-outs stand apart in the source and are kept apart here.
Legend:
[1] = molecular target: T1, α4β2 nicotinic acetylcholine receptor (Rattus norvegicus, UniProt P09483+P12390); assay: [3H]-N-methylcarbamyl choline (3H-MCC) displacement, rat cerebral cortex membranes; type: binding
T1 construct: from tissue; host or cells: rat cerebral cortex membranes
Procedure: Binding at the α4β2 nicotinic acetyicholine receptor can be measured as described in Abood, et al., Biochem. Pharmacol., 1986, 35:4199, or in Boksa, et al, Eur. J Pharmacol., 1987, 139:323. In essence, washed rat cerebral cortex membranes suspended in ice-cold saline (pH 7.4) were incubated with [^3H]-N-methylcarbamyl choline (^3H—MCC) for 60 minutes before being washed free of unbound radioligand with two rapid washes of the saline solution, using vacuum filtration. The glass filters used to collect the membranes for scintillation counting were pre-equilibrated with polyethyleneimine to reduce ligand binding by the filters.
Atropine sulfate at 12 μM was used to block muscarinic binding sites. Non-specific binding was assessed in the presence of 100 μM carbamylcholine. Thus, the Kd values of the test compounds were determined by their ability to compete for [^3H-acetyl]choline or ^3H—MCC binding. […] Some representative compounds of Formula I were tested for their ability to displace [^3H]—MCC. The Kl values presented in the table are mean values obtained from two separate experiments. […] In Table 3, “NA.” means that the data are not available.

[2] = molecular target: α4β2 nicotinic receptors (Rattus norvegicus, UniProt P09483+P12390); assay: [3H]cytisine binding displacement, washed whole rat brain membranes
[3] = system: α7 receptors; assay: Residual inhibition of ACh response after exposure to compound, oocytes; type: cell-based; settings: 100 pM compound
Procedure: Peak currents were measured for responses of α4β2 receptors to agonist application, because desensitization of this receptor subtype was slow enough not to affect the concentration-response relation measured in this manner. Currents resulting from agonist application to the more rapidly desensitizing α7 receptors were integrated over a period of […] after application commenced. To compare data obtained from different oocytes, a standard response normalization procedure was used. Agonist responses of a particular oocyte were always normalized relative to its response to a standard acetylcholine (ACh) control. Before actual measurements of agonist properties, several ACh pulses separated by 5-mm intervals were applied until the responses of the oocyte to ACh became steady. After washing for 5 mm, the peak current response to the test compound was measured. After another 5-mm washing period, ACh was again applied to measure the residual responsiveness of the receptors to ACh after exposure to the test substance. The concentration-response data were fitted with a modified Hill equation, I=Imax [agonist]^nH/([agonist]^nH+EC50), to estimate apparent efficacy (normalized maximal response) and EC50.
The numbers in parentheses in Table 2 are calculated EC50, values for just the ionized forms.

[4] = Kitagawa et al. 2003; cited from earlier work
[5] = displacement of [3H]-MCC, mean of two experiments, Cheng-Prusoff with Kd 5 nM, read-out: α4β2 Ki
[6] = inhibitory concentration of the ionized form, calculated assuming only the cationic form interacts, read-out: [3H] Cytisine Binding Ki(Ion)
[7] = rat brain membranes, radioligand 1 nM, mean±S.E.M. of three experiments, read-out: [3H] Cytisine Binding Ki ± S.E.M.

α4β2 nicotinic receptors, sequence (P09483 31-630): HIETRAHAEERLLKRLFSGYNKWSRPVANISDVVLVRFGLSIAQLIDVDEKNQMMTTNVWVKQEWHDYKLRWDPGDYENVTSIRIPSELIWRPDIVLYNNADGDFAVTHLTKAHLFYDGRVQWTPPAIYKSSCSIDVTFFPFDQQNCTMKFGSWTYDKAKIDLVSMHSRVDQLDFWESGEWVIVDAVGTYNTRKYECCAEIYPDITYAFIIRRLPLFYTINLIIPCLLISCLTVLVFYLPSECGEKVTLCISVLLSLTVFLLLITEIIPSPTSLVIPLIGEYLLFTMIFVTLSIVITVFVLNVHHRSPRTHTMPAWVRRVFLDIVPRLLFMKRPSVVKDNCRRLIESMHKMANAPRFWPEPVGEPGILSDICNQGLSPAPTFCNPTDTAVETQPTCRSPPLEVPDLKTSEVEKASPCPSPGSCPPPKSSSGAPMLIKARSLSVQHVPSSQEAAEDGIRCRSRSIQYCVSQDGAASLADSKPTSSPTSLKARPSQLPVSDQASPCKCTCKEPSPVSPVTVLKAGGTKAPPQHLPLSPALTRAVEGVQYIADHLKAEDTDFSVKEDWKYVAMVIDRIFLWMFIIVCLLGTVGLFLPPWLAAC
α4β2 nicotinic receptors, sequence (P12390 25-500): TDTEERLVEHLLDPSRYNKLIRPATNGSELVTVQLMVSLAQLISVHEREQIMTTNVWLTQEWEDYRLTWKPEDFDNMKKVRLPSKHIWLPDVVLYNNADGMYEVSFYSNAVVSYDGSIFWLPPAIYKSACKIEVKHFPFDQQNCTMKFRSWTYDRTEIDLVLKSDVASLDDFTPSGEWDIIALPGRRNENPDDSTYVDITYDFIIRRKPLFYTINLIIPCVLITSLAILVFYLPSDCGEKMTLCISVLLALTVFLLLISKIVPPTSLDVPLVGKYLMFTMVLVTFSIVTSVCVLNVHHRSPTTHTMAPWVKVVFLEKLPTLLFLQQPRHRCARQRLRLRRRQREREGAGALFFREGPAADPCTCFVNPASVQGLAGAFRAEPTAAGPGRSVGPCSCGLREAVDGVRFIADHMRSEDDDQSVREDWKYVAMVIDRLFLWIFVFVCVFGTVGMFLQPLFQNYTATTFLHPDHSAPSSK
T1 sequence (P09483 31-630): as the sequence (P09483 31-630) above
T1 sequence (P12390 25-500): as the sequence (P12390 25-500) above

Compound | Ki ([1]; read-out: α4β2 Ki) [nM] | further results
COc1cc(C=C2CCCN=C2c2cccnc2)ccc1O [GTS-23, 3-(3-Methoxy-4-hydroxybenzylidene)anabaseine] | > 5000 | 
Cc1ccc(C=C2CCCN=C2c2cccnc2)c(C)c1 [GTS-39, 3-(2,4-Dimethylbenzylidene)anabaseine] | 1000 | 
Cc1ncccc1C1=NCCCC1 [GTS-27, 2′-Methylanabaseine] |  | Ki [1]: 33000 nM
COc1ccc(C=C2CCCN=C2c2cccnc2)cc1 [GTS-2, 3-(4-Methoxybenzylidene)anabaseine] |  | Ki [1]: 320 nM
C(=C1CCCN=C1c1cccnc1)c1ccoc1 [GTS-45, 3(3-Furylidene)anabaseine] | 860 | 
COc1ccc(C=C2CCCN=C2c2ccccc2)c(OC)c1 [GTS-63, 2-Phenyl-3-(2,4-dimethoxybenzylidene)-4,5,6-trihydropyridine] | > 5000 | 
C(=Cc1ccco1)C=C1CCCN=C1c1cccnc1 [GTS-44, 3-(2-Furylpropenylidene)anabaseine] | 800 | 
Cc1ccc(C=C2CCCN=C2c2cccnc2)cc1 [GTS-48, 3-(4-Methylbenzylidene)anabaseine] | 2000 | 
Cc1cc(C)c(C=C2CCCN=C2c2cccnc2)c(C)c1 [GTS-40, 3-(2,46,-Trimethylbenzylidene)anabaseine] | 500 | 
6′-Methyl-3-(2,4-dimethoxybenzylidene)anabaseine [GTS-57] |  | Ki [1, 5]: 500 nM
O=[N+]([O-])c1ccc(C=C2CCCN=C2c2cccnc2)cc1 [GTS-3, 3-(4-Nitrobenzylidene)anabaseine] | > 5000 | 
COc1ccccc1C=C1CCCN=C1c1cccnc1 [GTS-16, 3-(2-Methoxybenzylidene)anabaseine] | 830 | 
COc1cc(OC)c(C=C2CCCN=C2c2cccnc2)c(OC)c1 [GTS-35, 3-(2,4,6-Trimethoxybenzylidene)anabaseine] | 170 | 
Clc1ccc(C=C2CCCN=C2c2cccnc2)cc1 [GTS-8, 3-(4-Chlorobenzylidene)anabaseine] | > 5000 | 
COc1ccc(C=C2CCC[N+](C)=C2c2cccnc2)c(OC)c1 [GTS-58, 1-Methyl-3-(2,4-djmethoxybenzylidene)anabaseine trifluoroacetate] |  | Ki [1, 5]: > 5000 nM
Oc1ccc(C=C2CCCN=C2c2cccnc2)c(O)c1 [GTS-52, 3-(2,4-Dihydroxybenzylidene)anabaseine] | 450 | Ki [2, 6]: 103 nM; Ki [2, 7]: 206 ± 16 nM
COc1cccc(C=C2CCCN=C2c2cccnc2)c1 [GTS-20, 3-(3-Methoxybenzylidene)anabaseine] |  | Ki [1]: 4000 nM

Compound | Ki ([1]; read-out: α4β2 Ki) [nM] | further results
N#Cc1ccc(C=C2CCCN=C2c2cccnc2)cc1 [GTS-5, 3-(4-Cyanobenzylidene)anabaseine] | > 5000 | 
COc1ccc(C=C2CCCN=C2c2cccnc2)c(O)c1 [GTS-51, 3-(2-Hydroxy-4-methoxybenzylidene)anabaseine] | 1500 | Ki [2, 6]: 128 nM; Ki [2, 7]: 387 ± 25 nM
CC(C)Oc1ccc(C=C2CCCN=C2c2cccnc2)c(OC(C)C)c1 [GTS-54, 3-(2,4-Diisopropoxybenzylidene)anabaseine] | 1000 | 
Cc1ccncc1C1=NCCCC1 [GTS-28, 4′-Methylanabaseine] |  | Ki [1]: 3800 nM
COc1ccc(/C=C2\CCCN=C2c2cccnc2)c(OC)c1 [GTS-21, 3-(2,4-Dimethoxybenzylidene)anabaseine] | 120 | Ki [2, 6]: 158 nM; Ki [2, 7]: 253 ± 37 nM; residual inhibition (reduced response to ACh 5 min after washing) [3]: ~50%; human toxicity in phase I clinical trial [4]: did not display significant human toxicity
CCCCCOc1ccc(C=C2CCCN=C2c2cccnc2)c(O)c1 [GTS-56, 3-(2-Hydroxy-4-pentoxybenzylidene)anabaseine] | 250 | 
C(=C1CCCN=C1c1cccnc1)c1ccco1 [GTS-43, 3-(2-Furylidene)anabaseine] | 640 | 
CN(C)CCCOc1ccc(C=C2CCCN=C2c2cccnc2)cc1 [GTS-15, 3-(4-Dimethylaminopropoxy-benzylidene)anabaseine] | 1600 | 
Nc1ccc(C=C2CCCN=C2c2cccnc2)cc1 [GTS-13, 3-(4-Aminobenzylidene)anabaseine] | 170 | 
Cc1cncc(C2=NCCCC2)c1 [GTS-60, 5′-Methylanabaseine] |  | Ki [1]: 130 nM
Cc1ccc(C2=NCCCC2)cn1 [GTS-26, 6′-Methylanabaseine] |  | Ki [1]: 26 nM
Oc1ccc(C=C2CCCN=C2c2cccnc2)cc1 [GTS-7, 3-(4-Hydroxybenzylidene)anabaseine] | 25 | 
Clc1ccc(C=C2CCCN=C2c2cccnc2)c(Cl)c1 [GTS-38, 3-(2,4-Dichlorobenzylidene)anabaseine] | 2000 | 
CN(C)c1ccc(C=CC=C2CCCN=C2c2cccnc2)cc1 [DMACA, 3-(4-Dimethylaminocinnamylidene)anabaseine] | 400 | 
CCCCCOc1ccc(C=C2CCCN=C2c2cccnc2)c(OCCCCC)c1 [GTS-55, 3-(2,4-Dipentoxybenzylidene)anabaseine] | 2500 | 
CCCOc1ccc(C=C2CCCN=C2c2cccnc2)c(OCCC)c1 [GTS-53, 3-(2,4-Dipropoxybenzylidene)anabaseine] | 4500 | 

Reference: patent US20050288333A1 (priority 2004, published 2005)
